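These data come from cells grown in 96-well plates and exposed to compound for 48 hours at five concentrations. GI50: concentration for 50% inhibition of growth. TGI denotes the concentration required for complete inhibition of growth.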
How the values were obtained:
Assay in all cases: inhibition of tumour cell growth, NCI panel, 48 h
NCI-H522 lung = system: NCI-H522 lung
COLO 205 colon = system: COLO 205 colon
HT29 colon = system: HT29 colon
IGROV1 ovarian = system: IGROV1 ovarian
CAKI-1 renal = system: CAKI-1 renal
ACHN renal = system: ACHN renal
NCI-H23 lung = system: NCI-H23 lung
SNB-75 CNS = system: SNB-75 CNS
T-47D breast = system: T-47D breast
BT-549 breast = system: BT-549 breast

Row | SMILES | TGI (NCI-H522 lung) | TGI (COLO 205 colon) | TGI (HT29 colon) | TGI (IGROV1 ovarian) | TGI (CAKI-1 renal) | TGI (ACHN renal) | TGI (NCI-H23 lung) | TGI (SNB-75 CNS) | TGI (T-47D breast) | TGI (BT-549 breast) | GI50 (NCI-H522 lung) | GI50 (T-47D breast) | GI50 (COLO 205 colon) | GI50 (HT29 colon) | GI50 (SNB-75 CNS) | GI50 (IGROV1 ovarian) | GI50 (CAKI-1 renal) | GI50 (ACHN renal) | GI50 (BT-549 breast) | GI50 (NCI-H23 lung)
1 | O=C(CCC(=O)C(C(=O)c1ccccc1)c1ccccc1)Nc1cccc(C(F)(F)F)c1 (stereo not drawn) | > 100 µM | > 100 µM | > 100 µM | > 100 µM | > 100 µM | > 100 µM | > 100 µM |  |  |  |  |  |  |  |  |  |  |  |  | 
2 | O=CC[C@H]1CCc2ccccc2C12CCC(=O)CC2 | > 100 µM | > 100 µM | > 100 µM | > 100 µM | > 100 µM | > 100 µM |  | > 100 µM |  |  |  |  |  |  |  |  |  |  |  | 
3 | Cc1ccc(S(=O)(=O)OCC23CCC(CC2)C2CC23)cc1 (stereo not drawn) |  | > 100 µM | > 100 µM | > 100 µM | > 100 µM | > 100 µM | > 100 µM | 40.6 µM |  |  |  |  |  |  |  |  |  |  |  | 
4 | CCC(=O)c1c(NOC2OC(COC(C)=O)C(OC(C)=O)C(OC(C)=O)C2OC(C)=O)nc(OC)n(C)c1=O (stereo not drawn) | > 100 µM | > 100 µM | > 100 µM | > 100 µM |  | > 100 µM | > 100 µM | > 100 µM |  |  |  |  |  |  |  |  |  |  |  | 
5 | COc1ccc(/C(C#N)=C/c2ccc(OC)c(OC)c2)cc1 | > 100 µM | > 100 µM | > 100 µM | > 100 µM | > 100 µM | > 100 µM | > 100 µM | > 100 µM | > 100 µM |  |  |  |  |  |  |  |  |  |  | 
6 | O=[N+]([O-])c1cccc(-c2oc(C=Nc3ccccc3)c([N+](=O)[O-])c2-c2cccc([N+](=O)[O-])c2)c1 | > 100 µM | > 100 µM | > 100 µM | > 100 µM |  | > 100 µM | > 100 µM | > 100 µM |  |  |  |  |  |  |  |  |  |  |  | 
7 | C1=CC=C2NCCCNC3=CC=CC=CC3=NCCCN=C2C=C1 |  | > 100 µM | > 100 µM | > 100 µM |  | > 100 µM |  | > 100 µM |  |  |  |  |  |  |  |  |  |  |  | 
8 | O=C1C2C3C=CC(C2C(=O)N1COP(=O)(O)O)C1C2C(=O)N(COP(=O)(O)O)C(=O)C2C31 (stereo not drawn) | > 100 µM | > 65 µM | > 100 µM | > 100 µM | > 100 µM | > 100 µM | > 100 µM | > 100 µM |  |  |  |  |  |  |  |  |  |  |  | 
9 | COc1cc(COC(=O)N(CC(=O)O)c2ccccc2)c([N+](=O)[O-])cc1OC |  | > 100 µM | > 100 µM | > 100 µM |  | > 100 µM | > 100 µM | > 100 µM | > 100 µM | > 100 µM |  |  |  |  |  |  |  |  |  | 
10 | O=c1[nH]c(=O)n(C2CC(O)C(CO)O2)cc1C1=NC1 (stereo not drawn) |  | > 100 µM | > 100 µM | > 100 µM |  | > 100 µM | > 100 µM | > 100 µM | > 100 µM | > 100 µM |  |  |  |  |  |  |  |  |  | 
11 | NCCCNCCCCN(CCCN)/[N+]([O-])=N\O |  | > 100 µM | > 100 µM | > 100 µM | > 100 µM | > 100 µM | > 100 µM | > 100 µM |  |  |  |  |  |  |  |  |  |  |  | 
12 | C=C(Br)N(CC)CC | > 100 µM | > 100 µM | > 100 µM | > 100 µM | > 100 µM | > 100 µM | > 100 µM | > 100 µM |  |  |  |  |  |  |  |  |  |  |  | 
13 | O=C(CC1(O)C(=O)Nc2c(Cl)cc(Cl)cc21)c1cccc2ccccc12 (stereo not drawn) | 28.9 µM | 31.4 µM | 33.8 µM | 36.9 µM | 25.3 µM | 30.8 µM | 32.8 µM | 33.1 µM |  |  |  |  |  |  |  |  |  |  |  | 
14 | COc1cc(OC)c(C2CC=Cc3c(OC)cc(OC)c(OC)c32)cc1OC (stereo not drawn) |  | > 100 µM | > 100 µM | > 100 µM | > 100 µM | > 100 µM | > 100 µM | > 100 µM |  |  |  |  |  |  |  |  |  |  |  | 
15 | O=C(Cc1nc2ccccc2s1)Nc1cccc(C(F)(F)F)c1 | 28.4 µM | 30.7 µM | 33.9 µM | 25.9 µM | 31.6 µM | 28.2 µM | 30.2 µM | 26.8 µM |  |  |  |  |  |  |  |  |  |  |  | 
16 | COc1ccc(Nc2c3ccccc3nc3ccccc23)cc1 | 15.7 µM | 1.85 µM | 2.71 µM | 8.72 µM | 10.4 µM | 5.68 µM |  | 17.6 µM | 14.3 µM | 23.6 µM | 1.13 µM | 2.37 µM | 0.52 µM | 0.454 µM | 2.85 µM | 0.629 µM | 1.21 µM | 1.28 µM | 5.99 µM | 
17 | CC(=O)OC(CCC1(C)OC1COc1ccc(CCNC(=O)c2ccccc2)cc1)C(C)(C)OC(C)=O (stereo not drawn) | > 100 µM | 58.4 µM | 44 µM | > 100 µM | > 100 µM | > 100 µM | 97.2 µM | > 100 µM |  |  |  |  |  |  |  |  |  |  |  | 
18 | S=c1cc(S)sc2c1c(=S)sc1nc3ccccn3c(=S)c12 |  |  | > 100 µM |  | > 100 µM | > 100 µM | > 100 µM | > 100 µM |  |  |  |  |  |  |  |  |  |  |  | 
19 | O=C(Nc1ccccc1)NS(=O)(=O)c1ccc(-n2nc3c(c2-c2ccc(Cl)cc2)Cc2ccccc2-3)cc1 | 67.4 µM | 64.9 µM | > 100 µM | > 100 µM | 29.2 µM | 71.8 µM |  | > 100 µM | > 100 µM | 65.9 µM | 19 µM | 49.9 µM | 23.5 µM | 29.8 µM | 48.7 µM | 28.5 µM | 4.37 µM | 12.9 µM | 21 µM | 
20 | CN1c2ccccc2C(C)(C)C12C=Cc1cc(O)ccc1O2 (stereo not drawn) | 24.9 µM | 3.88 µM | 11.6 µM | 14.9 µM | 12.4 µM | 22.9 µM | 13.8 µM | 8.4 µM | 16.9 µM |  | 3.6 µM | 4 µM | 1.9 µM | 3.33 µM | 2.47 µM | 4.69 µM | 3.37 µM | 7.2 µM |  | 2.97 µM
21 | C1CCN(c2nc(=[N+]3CCCCC3)ss2)CC1 | > 100 µM |  | > 100 µM | > 100 µM | > 100 µM | > 100 µM | > 100 µM | > 100 µM |  |  |  |  |  |  |  |  |  |  |  | 
22 | CN(C)c1ccc(Nc2cc(-c3cccc(OC(F)(F)F)c3)nc3ccc(N4CCCC4)cc23)cc1 | 4.73 µM | 9.02 µM | 4.59 µM | 3.06 µM | 3.57 µM | 4.36 µM | 4.39 µM | 3.12 µM |  | 3.58 µM | 2.03 µM |  | 2.56 µM | 2.18 µM | 1.64 µM | 1.56 µM | 1.75 µM | 2.05 µM | 1.96 µM | 2.06 µM

Reference: PubChem BioAssay (NCI)
